Laboratory results reported in PubChem BioAssay (NCI).
Where “and” joins values, the source holds several entries; their conditions need not be identical. Identical values can stand only once.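 Interpolation was linear, between the two tested concentrations surrounding the appropriate level; five concentrations were tested over 48 hours in 96-well plates. The concentration for 50% growth inhibition is given as GI50. TGI marks complete inhibition of growth.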

How the values were obtained:
Assay in all cases: NCI tumour cell line growth inhibition, 48 h
DLD-1 colon = system: DLD-1 colon
DMS 114 small cell lung = system: DMS 114 small cell lung
DMS 273 small cell lung = system: DMS 273 small cell lung
KM20L2 colon = system: KM20L2 colon
M19-MEL melanoma = system: M19-MEL melanoma
MDA-MB-231 breast = system: MDA-MB-231 breast
MDA-N = system: MDA-N
P388 leukemia = system: P388 leukemia
SN12K1 renal = system: SN12K1 renal
SNB-78 CNS = system: SNB-78 CNS
RXF-631 renal = system: RXF-631 renal

| Compound | TGI (DLD-1 colon) [µM] | TGI (DMS 114 small cell lung) [µM] | TGI (DMS 273 small cell lung) [µM] | TGI (KM20L2 colon) [µM] | TGI (M19-MEL melanoma) [µM] | GI50 (MDA-MB-231 breast) | TGI (MDA-MB-231 breast) | TGI (MDA-N) | TGI (P388 leukemia) [µM] | TGI (SN12K1 renal) [µM] | TGI (SNB-78 CNS) [µM] | TGI (RXF-631 renal) [µM] |
| --- | --- | --- | --- | --- | --- | --- | --- | --- | --- | --- | --- | --- |
| CN(C)CC1CCCC(CN(C)C)C1=O (stereo unspecified) | 4.14 | 3.87 | 26.8 | 13.2 | 7.24 | 3.9 µM and 16 µM | 13 µM and 31.2 µM | 25.6 µM and 28.4 µM | 2.13 | 30.4 | 10.3 | – |
| COc1ccc(C(=O)Nc2ccccc2)cc1[N+](=O)[O-] | > 100 | > 100 | > 100 | > 100 | > 100 | – | – | – | – | – | > 100 | > 100 |
| CC1(C)CC[C@]2(C(=O)O)CCC3(C)C(=CCC4[C@@]5(C)CC[C@H](OC6OCC(O)C(O)C6OC6OC(CO)C(O)C(O)C6O)C(C)(C)C5CC[C@]43C)C2C1 (stereo partly specified) | 22.7 | 3.62 | 3.93 | 3.7 | 3.46 | – | – | – | – | – | 5.04 | 3.21 |
| Clc1ccc(C2=NN(c3ccccc3)C3c4cc(Br)ccc4OCC23)cc1 (stereo unspecified) | > 100 | > 100 | > 100 | > 100 | > 100 | – | – | – | – | – | > 100 | > 100 |
| Cc1ccc(NC(=O)CCC(=O)C2CC(=O)CCC2=O)cc1C (stereo unspecified) | > 100 | > 100 | > 100 | > 100 | > 100 | – | – | – | – | – | > 100 | > 100 |
| C=C1C(=O)C23C(O)C1CCC2C12CO[C@]3(O)[C@@H](O)C1C(C)(C)CCC2O (stereo partly specified) | 33.8 | 20.7 | 28.1 | 30.5 | 23.7 | – | – | – | – | – | 32.8 | 34.5 |
